# Reference: BindingDB's records for patent US20240025883 (Hoffmann-La Roche, 2024)
# pIC50: −log10 of the molar value.
# Target: Uracil nucleotide/cysteinyl leukotriene receptor (Homo sapiens, UniProt Q13304)
# Test: GPR17 cAMP Assay Protocol
# Procedure: GPR17 cAMP Assay Protocol: CHO-K1 cells stably expressing vector containing untagged human GPR17 short isoform (Roche) were cultured at 37° C./5% CO2 in DMEM (Dulbecco's Modified Eagle Medium):F-12 (1:1) supplemented with 10% foetal bovine serum and 400 μg/ml Geneticin. Changes in intracellular cyclic adenosine monophosphate (cAMP) levels were quantified using the Nano-TRF Detection Assay kit (Roche Diagnostics, Cat. No. 05214386001). This assay allows for direct cAMP quantification in a homogeneous solution, cAMP is detected based on time-resolved fluorescence energy transfer (TR-FRET) and competitive binding of ruthenylated cAMP and endogenous cAMP to an anti-cAMP monoclonal antibody labeled with AlexaFluor-700. The Ruthenium complex serves as the FRET donor and transfers energy to AlexaFluor-700. The FRET signal is inversely proportional to the cAMP concentration. CHO-GPR17S cells were detached with Accutase and resuspended in assay buffer consisting of Hank's Balanced Salt Solution (HBSS), 10 mM HEPES (4-(2-hydroxyethyl) piperazine-1-ethanesulfonic acid solution) and 0.1% bovine serum albumin (pH 7.4). The cells were seeded in black 384-well plates (Corning) at a density of 10,000 cells/20 μl assay buffer until the addition of compounds.
# Uracil nucleotide/cysteinyl leukotriene receptor, sequence (Q13304 whole entry): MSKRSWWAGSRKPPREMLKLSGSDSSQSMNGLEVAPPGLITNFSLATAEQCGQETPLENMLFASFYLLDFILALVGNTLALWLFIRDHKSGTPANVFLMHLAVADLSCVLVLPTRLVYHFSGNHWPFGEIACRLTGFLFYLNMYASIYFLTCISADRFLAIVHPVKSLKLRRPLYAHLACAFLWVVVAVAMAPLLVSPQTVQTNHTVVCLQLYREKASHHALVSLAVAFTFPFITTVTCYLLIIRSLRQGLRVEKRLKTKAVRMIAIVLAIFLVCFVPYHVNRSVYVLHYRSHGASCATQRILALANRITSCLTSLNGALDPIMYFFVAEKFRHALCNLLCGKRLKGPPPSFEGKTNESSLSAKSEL
row,Structure (SMILES),pIC50
1,"COc1nc(NS(=O)(=O)c2c[nH]c3nc(C(F)F)ccc23)nc(OC)c1OCCF [US20240025883, Example 95]",7.17
2,"COc1nc(NS(=O)(=O)c2c[nH]c3cc(SC)ccc23)ncc1CC(F)F [US20240025883, Example 193]",7.02
3,"COc1nc(NS(=O)(=O)c2c[nH]c3c4c(ccc23)COC4)ncc1CC(F)F [US20240025883, Example 228]",6.79
4,"COc1nc(NS(=O)(=O)c2c[nH]c3c(C#N)c(Cl)ccc23)nc(OC)c1OCC(F)F [US20240025883, Example 226]",7.46
5,"COc1nc(NS(=O)(=O)c2c[nH]c3cc(F)ccc23)nc(OC)c1OC(F)(F)CF [US20240025883, Example 87]",7.18
6,"COc1nc(NS(=O)(=O)c2c[nH]c3nc(C(F)F)ccc23)nc(OC)c1OC(F)(F)CF [US20240025883, Example 97]",7.30

# Stronger by pIC50, values ahead:
row,pIC50,Structure (SMILES)
1,7.77,"COc1nc(NS(=O)(=O)c2c[nH]c3cc(Cl)ccc23)nc(OC)c1OCC(F)F [US20240025883, Example 54]"
2,7.77,"COc1nc(NS(=O)(=O)c2c[nH]c3cc(Cl)ccc23)nc(OC)c1OC(F)(F)CF [US20240025883, Example 55]"
3,7.85,"COc1nc(NS(=O)(=O)c2c[nH]c3cc(C(F)F)ccc23)nc(OC)c1OCC(F)F [US20240025883, Example 102]"
4,7.49,"COc1nc(NS(=O)(=O)c2c[nH]c3c(C#N)c(Cl)ccc23)nc(OC)c1OCCF [US20240025883, Example 225]"
5,7.54,"COc1nc(NS(=O)(=O)c2c[nH]c3nc(C(F)F)ccc23)nc(OC)c1OCC(F)F [US20240025883, Example 96]"
6,7.66,"COc1nc(NS(=O)(=O)c2c[nH]c3c(C#N)c(Cl)ccc23)nc(OC)c1CC(F)F [US20240025883, Example 227]"
